# Laboratory results reported in patent US20120058206A1, “ANTIALLERGIC MARINE BIOPOLYMERS” (MARINOMED BIOTECHNOLOGIE GMBH, priority 2008, published 2012).
# Test system: CFTL12 Mast cells stimulated with IgE/antigen complex (TNF-alpha release)
# Test: Inhibition of TNF-alpha production from IgE/antigen stimulated mast cells
# Format: cell-based, mouse
# Conditions: 60 minutes before IgE/antigen stimulation; for inhibition of TNF-alpha release: carrageenan 200 μg/ml, 6 hours at 37° C., supernatant ELISA (FIG. 1)
# Protocol: TNF-alpha is a mediator that is central in an inflammatory process as observed during infections, and autoimmune diseases. It is released by white blood cells, mast cells, endothelium and several other tissues in the course of damage.
# CFTL12 Mast cells were incubated with iota or kappa carrageenan at a concentration of 200 μg/ml. 60 minutes later the cells were stimulated with an IgE/antigen complex. Cells were incubated at 37° C. for 6 hours and TNF-alpha in the supernatant was determined by a commercial mouse TNF-alpha ELISA (Bender-Med-Systems). Error bars indicate the standard deviation between 4 independent wells. 1=non-stimulated; 2=IgE/antigen stimulation; 3=lambda carrageenan pretretament+subsequent IgE/antigen stimulation; 4=kappa carrageenan pretreatment++subsequent IgE/antigen stimulation, 5=iota-carrageenan pretreatment+subsequent IgE/antigen stimulation. The Y-axis mirrors the concentration of TNF-alpha in pg/ml.
# Mast cells were incubated with iota-carrageenan at varying concentrations. 60 minutes later the cells were stimulated with IgE/antigen complex. Cells were incubated at 37° C. for 6 hours and TNF-alpha in the supernatant was determined by a commercial mouse TNF-alpha ELISA (Bender-Med-Systems). Error bars indicate the standard deviation between 4 independent wells. 1=non-stimulated; 2=IgE/antigen stimulated, 3=iota-carrageenan 200 μg/ml, 4=iota-carrageenan 66 μg/ml, 5=iota-carrageenan 6.6 μg/ml, 6=iota-carrageenan 0.6 μg/ml. The Y-axis represents the concentration of TNF-alpha in pg/ml.
substance,measurement,setting,value
iota-carrageenan,dose dependence of inhibition of TNF-alpha production,"200, 66, 6.6, 0.6 μg/ml, 6 hours (FIG. 2)",Dose-Dependent Inhibition
same,inhibition of TNF-alpha release,,inhibit TNF-alpha release
kappa carrageenan,inhibition of TNF-alpha release,,inhibit TNF-alpha release
lambda carrageenan [reference compound],inhibition of TNF-alpha release,,not
